Broadly, the EC50 is the concentration needed to bring the measured effect to its halfway point.

The source of these data is patent US20240166693A1, “METHODS AND COMPOUNDS FOR MODULATING MYOTONIC DYSTROPY 1” (Design Therapeutics, Inc., priority 2020, published 2024).

Read-outs that look alike come from different tables or passages of the source.

For the test, the system named is Myotonic Dystrophy 1 affected patient fibroblasts (Coriell GM04602; 1600 CTG repeats). Description: DM1 foci reduction assay (CAG10-Cy3 FISH, average foci per nucleus). In kind it is cell-based. To be noted: Homo sapiens, Fibroblast. The method in brief:
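Read-out is mean nuclear foci per well from CAG10-Cy3 FISH (5 nM probe, overnight 37 °C) with DAPI nuclei, 4 fields per well at 20×. Compounds ran 48 h in 8-point, 3-fold series topping at 3 μM on 1600-CTG GM04602 fibroblasts, alongside GM07492 wild-type cells.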

Setting [1] is: 48 h, read-out: Foci Reduction in Fibroblast EC50, 48 h (nM).
[2] abbreviates: DM1 fibroblasts, 48 h treatment, 8-point dose response, 3 μM top dose, read-out: Foci Reduction in Fibroblast EC50, 48 h.

For `CCN(CC)CCCC[C@H](NC(=O)[C@H](CC(C)C)NC(=O)[C@H](C)NC(=O)[C@H](Cc1ccccc1)NC(=O)c1ccc(C(C)(C)C)cc1)C(=O)N[C@@H](CO)C(=O)NCCOCCOCCOCCOCCOCCNC(=O)c1cc(NC(=O)c2cc(NC(=O)c3nc(NC(=O)c4cc(NC(=O)[C@@H](N)CCNC(=O)c5nc(NC(=O)c6cc(NC(=O)c7cc(NC(=O)c8nccn8C)cn7C)cn6C)cn5C)cn4C)cn3C)cn2C)cn1C` [Compound 55], under setting [1], the EC50 was more than 500 nM.

In the case of `CCN(CC)CCCC[C@H](NC(=O)[C@H](CC(C)C)NC(=O)[C@H](C)NC(=O)[C@H](Cc1ccccc1)NC(=O)c1ccc(C(C)(C)C)cc1)C(=O)N[C@@H](CO)C(=O)N(C)CCOCCOCCNC(=O)CCNC(=O)c1nc(NC(=O)c2cc(NC(=O)CCNC(=O)c3nc(NC(=O)CCCNC(=O)c4cc(NC(=O)c5nc(NC(=O)CCNC(=O)c6cc(NC(=O)c7nccn7C)cn6C)cn5C)cn4C)cn3C)cn2C)cn1C` [Compound 75], the EC50 under setting [1] is less than 100 nM.

Take `COc1c(OCCOCCOCCOCCOCCOCCNC(=O)CCNC(=O)c2nc(NC(=O)c3cc(NC(=O)CCNC(=O)c4nc(NC(=O)CCCNC(=O)c5cc(NC(=O)c6nc(NC(=O)CCNC(=O)c7cc(NC(=O)c8nccn8C)cn7C)cn6C)cn5C)cn4C)cn3C)cn2C)cccc1C(=O)N1CCN(C(=O)COc2cc(C)c(N)c(C)c2)CC1` [Compound 92]: the EC50 under setting [2] is more than 500 nM.

With `CCN(CC)CCCC[C@H](NC(=O)[C@H](CC(C)C)NC(=O)[C@H](C)NC(=O)[C@H](Cc1ccccc1)NC(=O)c1ccc(C(C)(C)C)cc1)C(=O)N[C@@H](CO)C(=O)NCCOCCOCCOCCOCCNC(=O)CCNC(=O)c1nc(NC(=O)c2cc(NC(=O)CCNC(=O)c3nc(NC(=O)CCCNC(=O)c4cc(NC(=O)c5nc(NC(=O)CCNC(=O)c6cc(NC(=O)c7nccn7C)cn6C)cn5C)cn4C)cn3C)cn2C)cn1C` [Compound 72], the EC50 under setting [1] was less than 100 nM.

In the case of `CCN(CC)CCCC[C@H](NC(=O)[C@H](CC(C)C)NC(=O)[C@H](C)NC(=O)[C@H](Cc1ccccc1)NC(=O)c1ccc(C(C)(C)C)cc1)C(=O)N[C@@H](CO)C(=O)NCCOCCOCCOCCOCCOCCN(CCCCN=[N+]=[N-])C(=O)CCNC(=O)c1nc(NC(=O)c2cc(NC(=O)CCNC(=O)c3nc(NC(=O)CCCNC(=O)c4cc(NC(=O)c5nc(NC(=O)CCNC(=O)c6cc(NC(=O)c7nccn7C)cn6C)cn5C)cn4C)cn3C)cn2C)cn1C` [Compound 189], the EC50 under setting [1] was less than 100 nM.

Regarding `CCN(CC)CCCC[C@H](NC(=O)[C@H](CC(C)C)NC(=O)[C@H](C)NC(=O)[C@H](Cc1ccccc1)NC(=O)c1ccc(C(C)(C)C)cc1)C(=O)N[C@@H](CO)C(=O)NCCOCCNCC#CC#Cc1ccc(NC(=O)CCNC(=O)c2nc(NC(=O)c3cc(NC(=O)CCNC(=O)c4nc(NC(=O)CCCNC(=O)c5cc(NC(=O)c6nc(NC(=O)CCNC(=O)c7cc(NC(=O)c8nccn8C)cn7C)cn6C)cn5C)cn4C)cn3C)cn2C)cc1` [Compound 98], the EC50 under setting [1] was more than 500 nM.

On to `CCN(CC)CCCC[C@H](NC(=O)[C@H](CC(C)C)NC(=O)[C@H](C)NC(=O)[C@H](Cc1ccccc1)NC(=O)c1ccc(C(C)(C)C)cc1)C(=O)N[C@@H](CO)C(=O)NCCOCCOCCN(C)C(=O)CCNC(=O)c1nc(NC(=O)c2cc(NC(=O)CCNC(=O)c3nc(NC(=O)CCCNC(=O)c4cc(NC(=O)c5nc(NC(=O)CCNC(=O)c6cc(NC(=O)c7nccn7C)cn6C)cn5C)cn4C)cn3C)cn2C)cn1C` [Compound 74], for which, under setting [1], the EC50 was less than 100 nM.

Turning to `CCN(CC)CCCC[C@H](NC(=O)[C@H](CC(C)C)NC(=O)[C@H](C)NC(=O)[C@H](Cc1ccccc1)NC(=O)c1ccc(C(C)(C)C)cc1)C(=O)N[C@@H](CO)C(=O)NCCOCCOCCOCCOCCOCCNC(=O)CCNC(=O)c1nc(NC(=O)c2cc(NC(=O)CCNC(=O)c3nc(NC(=O)[C@@H](CCNC(=O)c4cc(NC(=O)c5nc(NC(=O)CCNC(=O)c6cc(NC(=O)c7nccn7C)cn6C)cn5C)cn4C)NC(C)=O)cn3C)cn2C)cn1C` [Compound 102], under setting [1], the concentration giving a half-maximal response (EC50) lay in the range of 100 to 500 nM.

In the case of `CCN(CC)CCCC[C@H](NC(=O)[C@H](CC(C)C)NC(=O)[C@H](C)NC(=O)[C@H](Cc1ccccc1)NC(=O)c1ccccc1C)C(=O)N[C@@H](CO)C(=O)NCCOCCOCCOCCOCCOCCNC(=O)CCNC(=O)c1nc(NC(=O)c2cc(NC(=O)CCNC(=O)c3nc(NC(=O)CCCNC(=O)c4cc(NC(=O)c5nc(NC(=O)CCNC(=O)c6cc(NC(=O)c7nccn7C)cn6C)cn5C)cn4C)cn3C)cn2C)cn1C` [Compound 86], under setting [1], the concentration giving a half-maximal response (EC50) is less than 100 nM.

As for `CCN(CC)CCCC[C@H](NC(=O)[C@H](CC(C)C)NC(=O)[C@H](C)NC(=O)[C@H](Cc1ccccc1)NC(=O)c1ccc(C(C)(C)C)cc1)C(=O)N[C@@H](CO)C(=O)NCCOCCOCCOCCOCCOCCNC(=O)c1cc(NC(=O)c2nc(NC(=O)CCCNC(=O)c3cc(NC(=O)c4nc(NC(=O)CCNC(=O)c5cc(NC(=O)c6nccn6C)cn5C)cn4C)cn3C)cn2C)cn1C` [Compound 110], under setting [1], the 50% effective concentration (EC50) is more than 500 nM.

As for `CCN(CC)CCCC[C@H](NC(=O)COCCOCCNC(=O)c1ccc(C(C)(C)C)cc1)C(=O)N[C@@H](CO)C(=O)NCCOCCOCCOCCOCCOCCNC(=O)CCNC(=O)c1nc(NC(=O)c2cc(NC(=O)CCNC(=O)c3nc(NC(=O)CCCNC(=O)c4cc(NC(=O)c5nc(NC(=O)CCNC(=O)c6cc(NC(=O)c7nccn7C)cn6C)cn5C)cn4C)cn3C)cn2C)cn1C` [Compound 66], the 50% effective concentration (EC50) under setting [1] was in the range of 100 to 500 nM.

In the case of `CCN(CC)CCCC[C@H](NC(=O)[C@H](CC(C)C)NC(=O)[C@H](C)NC(=O)[C@H](Cc1ccccc1)NC(=O)c1ccc(C(C)(C)C)cc1)C(=O)N[C@@H](CO)C(=O)NCCOCCOCCOCCOCCOCCNC(=O)c1cc(NC(=O)c2nc(NC(=O)c3cc(NC(=O)CCCNC(=O)c4nc(NC(=O)CCNC(=O)c5cc(NC(=O)c6nccn6C)cn5C)cn4C)cn3C)cn2C)cn1C` [Compound 115], under setting [1], the EC50 is more than 500 nM.

Turning to `COc1c(OCCOCCOCCOCCOCCOCCNC(=O)CCNC(=O)c2nc(NC(=O)c3cc(NC(=O)CCNC(=O)c4nc(NC(=O)CCCNC(=O)c5cc(NC(=O)c6nc(NC(=O)CCNC(=O)c7cc(NC(=O)c8nccn8C)cn7C)cn6C)cn5C)cn4C)cn3C)cn2C)cccc1C(=O)N1CCN(C(=O)COc2cccc(OCCNC(=O)CNC(=O)c3ccc(C(C)(C)C)cc3)c2)CC1` [Compound 159], under setting [2], the EC50 fell in the range of 100 to 500 nM.

In the case of `CCN(CC)CCCC[C@H](NC(=O)[C@H](CC(C)C)NC(=O)[C@H](C)NC(=O)[C@H](Cc1ccccc1)NC(=O)c1ccc(C(C)(C)C)cc1)C(=O)N[C@@H](CO)C(=O)NCCOCCOCCOCCOCCOCCNC(=O)c1nc(NC(=O)CCNC(=O)c2cc(NC(=O)c3nc(NC(=O)CCNC(=O)c4cc(NC(=O)c5nc(NC(=O)CCNC(=O)c6cccn6C)cn5C)cn4C)cn3C)cn2C)cn1C` [Compound 10], the EC50 under setting [1] is more than 500 nM.

In the case of `COc1cc2nc(N3CCCCC3)nc(NC3CCN(CCOCCOCCOCCOCCOCCNC(=O)CCNC(=O)c4nc(NC(=O)c5cc(NC(=O)CCNC(=O)c6nc(NC(=O)CCCNC(=O)c7cc(NC(=O)c8nc(NC(=O)CCNC(=O)c9cc(NC(=O)c%10nccn%10C)cn9C)cn8C)cn7C)cn6C)cn5C)cn4C)CC3)c2cc1OC` [Compound 192], the 50% effective concentration (EC50) under setting [2] is more than 500 nM.

Consider `CCN(CC)CCCC[C@H](NC(=O)[C@H](CC(C)C)NC(=O)[C@H](C)NC(=O)[C@H](Cc1ccccc1)NC(=O)c1ccc(C(C)(C)C)cc1)C(=O)N[C@@H](CO)C(=O)NCCOCCOCCOCCOCCOCCNC(=O)c1cc(NC(=O)c2nc(NC(=O)[C@@H](CCNC(=O)c3cc(NC(=O)c4nc(NC(=O)CCNC(=O)c5cc(NC(=O)c6nccn6C)cn5C)cn4C)cn3C)NC(C)=O)cn2C)cn1C` [Compound 112], for which the EC50 under setting [1] was more than 500 nM.

With `CCCCCCNc1nc(NC2CCN(CCOCCOCCOCCOCCOCCNC(=O)CCNC(=O)c3nc(NC(=O)c4cc(NC(=O)CCNC(=O)c5nc(NC(=O)CCCNC(=O)c6cc(NC(=O)c7nc(NC(=O)CCNC(=O)c8cc(NC(=O)c9nccn9C)cn8C)cn7C)cn6C)cn5C)cn4C)cn3C)CC2)c2cc(OC)c(OC)cc2n1` [Compound 190], the EC50 under setting [2] was more than 500 nM.

Turning to `CC(C)c1cnn2c(NCc3ccc(OCCOCCOCCOCCOCCOCCOCCOCCOCCOCCOCCOCCOCCOCCOCCOCCNC(=O)CCNC(=O)c4nc(NC(=O)c5cc(NC(=O)CCNC(=O)c6nc(NC(=O)CCCNC(=O)c7cc(NC(=O)c8nc(NC(=O)CCNC(=O)c9cc(NC(=O)c%10nccn%10C)cn9C)cn8C)cn7C)cn6C)cn5C)cn4C)cc3-n3cccn3)nc(OC3CCCNC3)nc12` (stereo not shown) [Compound 54], the EC50 under setting [2] is more than 500 nM.

In the case of `Cn1cc(CCn2c(CNCCOCCOCCOCCOCCOCCNC(=O)CCNC(=O)c3nc(NC(=O)c4cc(NC(=O)CCNC(=O)c5nc(NC(=O)CCCNC(=O)c6cc(NC(=O)c7nc(NC(=O)CCNC(=O)c8cc(NC(=O)c9nccn9C)cn8C)cn7C)cn6C)cn5C)cn4C)cn3C)nc(-c3cnn(C)c3)c2-c2ccc(C#N)cc2)cn1` [Compound 172], under setting [2], the EC50 was more than 500 nM.

`CCN(c1cc(-c2ccc(CN3CCN(CCOCCOCCNC(=O)CCNC(=O)c4nc(NC(=O)c5cc(NC(=O)CCNC(=O)c6nc(NC(=O)CCCNC(=O)c7cc(NC(=O)c8nc(NC(=O)CCNC(=O)c9cc(NC(=O)c%10nccn%10C)cn9C)cn8C)cn7C)cn6C)cn5C)cn4C)CC3)cc2)cc(C(=O)NCc2c(C)cc(C)[nH]c2=O)c1C)C1CCOCC1` [Compound 165]: the EC50 under setting [2] is more than 500 nM.

On to `CCN(CC)CCCC[C@H](NC(=O)[C@H](CC(C)C)NC(=O)[C@H](C)NC(=O)[C@H](Cc1ccccc1)NC(=O)c1ccc(C(C)(C)C)cc1)C(=O)N[C@@H](CO)C(=O)NCCNC(=O)CCNC(=O)c1nc(NC(=O)c2cc(NC(=O)CCNC(=O)c3nc(NC(=O)CCCNC(=O)c4cc(NC(=O)c5nc(NC(=O)CCNC(=O)c6cc(NC(=O)c7nccn7C)cn6C)cn5C)cn4C)cn3C)cn2C)cn1C` [Compound 70], for which the EC50 under setting [1] was less than 100 nM.

In the case of `CCN(CC)CCCC[C@H](NC(=O)[C@H](CC(C)C)NC(=O)[C@H](C)NC(=O)[C@H](Cc1ccccc1)NC(=O)c1ccc(C(C)(C)C)cc1)C(=O)N[C@@H](CO)C(=O)Nc1ccc(C#CC#CCNC(=O)CCNC(=O)c2nc(NC(=O)c3cc(NC(=O)CCNC(=O)c4nc(NC(=O)CCCNC(=O)c5cc(NC(=O)c6nc(NC(=O)CCNC(=O)c7cc(NC(=O)c8nccn8C)cn7C)cn6C)cn5C)cn4C)cn3C)cn2C)cc1` [Compound 96], the EC50 under setting [1] was less than 100 nM.
